Measurements published in EP0888055B1, “HERBICIDAL COMPOSITION AND METHOD OF WEED CONTROL” (Novartis AG, priority 1996, dated 1997).

Assays:
Brachiaria [1] = assay: Post-emergence test (Example B1); type: in vivo; conditions: 24 days
Source text: (§1) The expected herbicidal action E for a given combination of two herbicides can be calculated as follows (see COLBY, S.R., "Calculating synergistic and antagonistic response of herbicide combinations", Weeds 15, pages 20-22, 1967): E = X +(Y • (100 - X))/(100) [formula]
(§2) In the above formula: X = percentage growth inhibition in the case of treatment with the compound of formula A at a rate of application of p kg per hectare compared with the untreated control (= 0 %). Y = percentage herbicidal action in the case of treatment with one of the mixing partners at a rate of application of q kg per hectare compared with the untreated control. E = Expected herbicidal action (percentage herbicidal action compared with the untreated control) after treatment with the compounds of formulae A and the mixing partners at a rate of application of p + q kg of active ingredient per hectare.
(§3) The test plant seeds are grown to the 4- to 6-leaf stage under greenhouse conditions in plastics pots. The culture substrate used is a standard soil. At the 4- to 6-leaf stage the herbicides are applied separately and in admixture to the test plants. The test compounds are applied in the form of an aqueous suspension (Formulation Example F8, c)) in 500 l of water/ha. The rates of application conform to the optimum concentrations ascertained under field conditions and greenhouse conditions. Evaluation of the tests is carried out after 24 days. The following linear scale is used as a measure (% action): • 100 % = plants have died • 50 % = moderate action • 0 % = no phytotoxic action (as untreated control).
(§4) Test plants: brachiaria, cyperus, digitaria, echinochloa, panicum.

Digitaria = assay: Post-emergence test (Example B1); type: in vivo; conditions: 24 days
Source text: as §1, §2, §3, §4

Echinochloa = assay: Post-emergence test (Example B1); type: in vivo; conditions: 24 days
Source text: as §1, §2, §3, §4

Panicum = assay: Post-emergence test (Example B1); type: in vivo; conditions: 24 days
Source text: as §1, §2, §3, §4

Cyperus = assay: Post-emergence test (Example B1); type: in vivo; conditions: 24 days
Source text: as §1
In the above formula: X = percentage growth inhibition in the case of treatment with the compound of formula A at a rate of application of p kg per hectare compared with the untreated control (= 0 %). Y = percentage herbicidal action in the case of treatment with one of the mixing partners at a rate of application of q kg per hectare compared with the untreated control.
as §3, with “days.” for “days. The following linear scale is used as a measure (% action): • 100 % = plants have died • 50 % = moderate action • 0 % = no phytotoxic action (as untreated control).”
as §4

Maize [2] = assay: Pre-emergence test (Example B2), tolerance of useful plant; type: in vivo
Source text: (§5) The test plants are sown in plastics pots in standard soil. Directly after sowing the test compounds are applied by spraying, separately or in admixture, in the form of an aqueous suspension of the test compounds (Formulation Example F8, c) and d)) or in the form of an emulsion concentrate (Formulation Example F1, d)) in 500 l of water/ha. The rates of application conform to the optimum concentrations ascertained under field conditions and greenhouse conditions. The test plants are then cultivated in the greenhouse under optimum conditions. After 34 days' (Tables B2 to B5) and 41 days' (Table B6) test duration, the test is evaluated (% action, 100 % = plants have died, 0 % = no phytotoxic action). From 61 to 80 % (especially from 81 to 100 %) phytotoxicity indicates good to very good herbicidal action in weeds; from 0 to 15 % (especially from 0 to 5 %) phytotoxicity indicates good to very good tolerance in useful plants.

Abutilon = assay: Pre-emergence test (Example B2); type: in vivo
Source text: as §1, §2, §5
(§6) Test plants: abutilon, bidens, euphorbia, ipomoea, sesbamia, xanthium, rottboellia, sida, Sorghum bicolor.

Bidens = assay: Pre-emergence test (Example B2); type: in vivo; conditions: 34 days
Source text: as §1, §2, §5, §6

Euphorbia = assay: Pre-emergence test (Example B2); type: in vivo
Source text: as §1, §2, §5, §6

Ipomoea = assay: Pre-emergence test (Example B2); type: in vivo
Source text: as §1, §2, §5, §6

Rottboellia = assay: Pre-emergence test (Example B2); type: in vivo
Source text: as §1, §2, §5, §6

Sesbania = assay: Pre-emergence test (Example B2); type: in vivo; conditions: 34 days
Source text: as §1, §2, §5, §6

Sida = assay: Pre-emergence test (Example B2); type: in vivo
Source text: as §1, §2, §5, §6

Xanthium = assay: Pre-emergence test (Example B2); type: in vivo; conditions: 34 days
Source text: as §1, §2, §5, §6

Brachiaria [3] = assay: Pre-emergence test (Example B2); type: in vivo; conditions: 34 days
Source text: as §1, §2, §5

Sorghum bic. = assay: Pre-emergence test (Example B2); type: in vivo, Sorghum bicolor; conditions: 8 g active ingredient/ha, 41 days
Source text: as §1, §2
The test plants are sown in plastics pots in standard soil. Directly after sowing the test compounds are applied by spraying, separately or in admixture, in the form of an aqueous suspension of the test compounds (Formulation Example F8, c) and d)) or in the form of an emulsion concentrate (Formulation Example F1, d)) in 500 l of water/ha. […] After 34 days' (Tables B2 to B5) and 41 days' (Table B6) test duration, the test is evaluated (% action, 100 % = plants have died, 0 % = no phytotoxic action). […]

Maize [4] = assay: Breakdown in treated useful plants; conditions: after application of the compositions; especially maize; compared with metolachlor
[5] = 8 g active ingredient/ha, 41 days
[6] = 15 g active ingredient/ha, 34 days
[7] = 15 g active ingredient/ha, 41 days
[8] = 30 g active ingredient/ha, 34 days
[9] = 60 g active ingredient/ha, 34 days
[10] = 60 g active ingredient/ha, 41 days
[11] = 30 g active ingredient/ha, 41 days
[12] = 150 g active ingredient/ha, 34 days
[13] = 300 g active ingredient/ha, 34 days
[14] = 600 g active ingredient/ha, 34 days
[15] = 125 g active ingredient/ha, 34 days
[16] = 250 g active ingredient/ha, 34 days
[17] = 500 g active ingredient/ha, 34 days

SMILES: C=CCOC(=O)C(C)(C)OC(=O)c1cc(-n2c(=O)cc(C(F)(F)F)n(C)c2=O)ccc1Cl [A]
- Herbicidal activity, Weed: Brachiaria (Brachiaria [1]; 100 g active ingredient/ha): 10%
- Herbicidal activity, Weed: Brachiaria (Brachiaria [1]; 200 g active ingredient/ha): 15%
- Herbicidal activity, Weed: Digitaria (Digitaria; 50 g active ingredient/ha): 85%
- Herbicidal activity, Weed: Digitaria (Digitaria; 100 g active ingredient/ha): 90%
- Herbicidal activity, Weed: Digitaria (Digitaria; 200 g active ingredient/ha): 90%
- Herbicidal activity, Weed: Echinochloa (Echinochloa; 100 g active ingredient/ha): 15%
- Herbicidal activity, Weed: Echinochloa (Echinochloa; 200 g active ingredient/ha): 45%
- Herbicidal activity, Weed: Panicum (Panicum; 50 g active ingredient/ha): 50%
- Herbicidal activity, Weed: Panicum (Panicum; 200 g active ingredient/ha): 70%
- Herbicidal activity, Weed: Cyperus (Cyperus; 50 g active ingredient/ha): 50%
- Herbicidal activity, Weed: Cyperus (Cyperus; 100 g active ingredient/ha): 60%
- Herbicidal activity, Useful plant: Maize (Maize [2]; [5]): 0%
- Herbicidal activity, Useful plant: Maize (Maize [2]; [6]): 0%
- Herbicidal activity, Useful plant: Maize (Maize [2]; [7]): 0%
- Herbicidal activity, Useful plant: Maize (Maize [2]; [8]): 10%
- Herbicidal activity, Useful plant: Maize (Maize [2]; [9]): 10%
- Herbicidal activity, Useful plant: Maize (Maize [2]; [10]): 40%
- Herbicidal activity, Weed: Abutilon (Abutilon; [5]): 50%
- Herbicidal activity, Weed: Abutilon (Abutilon; [6]): 20%
- Herbicidal activity, Weed: Abutilon (Abutilon; [7]): 80%
- Herbicidal activity, Weed: Abutilon (Abutilon; [8]): 40%
- Herbicidal activity, Weed: Bidens (Bidens; 15 g active ingredient/ha): 20%
- Herbicidal activity, Weed: Bidens (Bidens; 30 g active ingredient/ha): 30%
- Herbicidal activity, Weed: Bidens (Bidens; 60 g active ingredient/ha): 90%
- Herbicidal activity, Weed: Euphorbia (Euphorbia; [6]): 0%
- Herbicidal activity, Weed: Euphorbia (Euphorbia; [7]): 85%
- Herbicidal activity, Weed: Euphorbia (Euphorbia; [8]): 90%
- Herbicidal activity, Weed: Ipomoea (Ipomoea; [8]): 20%
- Herbicidal activity, Weed: Ipomoea (Ipomoea; [11]): 0%
- Herbicidal activity, Weed: Ipomoea (Ipomoea; [9]): 30%
- Herbicidal activity, Weed: Rottboellia (Rottboellia; [11]): 80%
- Herbicidal activity, Weed: Rottboellia (Rottboellia; [9]): 30%
- Herbicidal activity, Weed: Rottboellia (Rottboellia; [10]): 70%
- Herbicidal activity, Weed: Sesbania (Sesbania; 60 g active ingredient/ha): 50%
- Herbicidal activity, Weed: Sida (Sida; [5]): 40%
- Herbicidal activity, Weed: Sida (Sida; [6]): 80%
- Herbicidal activity, Weed: Xanthium (Xanthium; 15 g active ingredient/ha): 0%
- Herbicidal activity, Weed: Xanthium (Xanthium; 30 g active ingredient/ha): 0%
- Herbicidal activity, Weed: Xanthium (Xanthium; 60 g active ingredient/ha): 20%
- Herbicidal activity, Weed: Brachiaria (Brachiaria [3]; 60 g active ingredient/ha): 60%
- Herbicidal activity, Weed: Sorghum bic. (Sorghum bic.): 0%
- breakdown in the useful plants treated (Maize [4]): broken down more rapidly

SMILES: O=C(O)CNCP(=O)(O)O [Gly, glyphosate]
- Herbicidal activity, Weed: Brachiaria (Brachiaria [1]; 200 g active ingredient/ha): 60%
- Herbicidal activity, Weed: Brachiaria (Brachiaria [1]; 300 g active ingredient/ha): 70%
- Herbicidal activity, Weed: Brachiaria (Brachiaria [1]; 400 g active ingredient/ha): 70%
- Herbicidal activity, Weed: Digitaria (Digitaria; 100 g active ingredient/ha): 25%
- Herbicidal activity, Weed: Echinochloa (Echinochloa; 200 g active ingredient/ha): 0%
- Herbicidal activity, Weed: Echinochloa (Echinochloa; 400 g active ingredient/ha): 20%
- Herbicidal activity, Weed: Panicum (Panicum; 100 g active ingredient/ha): 70%

SMILES: CCc1cccc(C)c1N(C(=O)CCl)[C@@H](C)COC [Met-S, aRS,1'S(-)-N-(1'-methyl-2'-methoxyethyl)-N-chloroacetyl-2-ethyl-6-methylaniline]
- Herbicidal activity, Useful plant: Maize (Maize [2]; [12]): 0%
- Herbicidal activity, Useful plant: Maize (Maize [2]; [13]): 10%
- Herbicidal activity, Useful plant: Maize (Maize [2]; [14]): 10%
- Herbicidal activity, Weed: Abutilon (Abutilon; [12]): 0%
- Herbicidal activity, Weed: Abutilon (Abutilon; [13]): 10%
- Herbicidal activity, Weed: Euphorbia (Euphorbia; [12]): 0%
- Herbicidal activity, Weed: Euphorbia (Euphorbia; [13]): 0%
- Herbicidal activity, Weed: Euphorbia (Euphorbia; [14]): 0%
- Herbicidal activity, Weed: Sida (Sida; [12]): 0%
- Herbicidal activity, Weed: Sida (Sida; [13]): 40%
- Herbicidal activity, Weed: Xanthium (Xanthium; 300 g active ingredient/ha): 0%
- Herbicidal activity, Weed: Xanthium (Xanthium; 600 g active ingredient/ha): 20%
- Herbicidal activity, Weed: Brachiaria (Brachiaria [3]; 150 g active ingredient/ha): 20%
- Herbicidal activity, Weed: Brachiaria (Brachiaria [3]; 300 g active ingredient/ha): 50%

SMILES: CCNc1nc(Cl)nc(NC(C)(C)C)n1 [Terb, terbuthylazine]
- Herbicidal activity, Useful plant: Maize (Maize [2]; [15]): 0%
- Herbicidal activity, Useful plant: Maize (Maize [2]; [16]): 0%
- Herbicidal activity, Useful plant: Maize (Maize [2]; [17]): 0%
- Herbicidal activity, Weed: Abutilon (Abutilon; [16]): 30%
- Herbicidal activity, Weed: Abutilon (Abutilon; [17]): 90%
- Herbicidal activity, Weed: Bidens (Bidens; 125 g active ingredient/ha): 0%
- Herbicidal activity, Weed: Bidens (Bidens; 250 g active ingredient/ha): 60%
- Herbicidal activity, Weed: Euphorbia (Euphorbia; [15]): 40%
- Herbicidal activity, Weed: Euphorbia (Euphorbia; [16]): 70%
- Herbicidal activity, Weed: Euphorbia (Euphorbia; [17]): 95%
- Herbicidal activity, Weed: Ipomoea (Ipomoea; [15]): 0%
- Herbicidal activity, Weed: Ipomoea (Ipomoea; [17]): 95%
- Herbicidal activity, Weed: Sesbania (Sesbania; 250 g active ingredient/ha): 80%
